# Test results from patent US20100249138A1, “MPZP: A SMALL MOLECULE CORTICOTROPIN-RELEASING FACTOR TYPE 1 RECEPTOR (CRF1) ANTOGONIST” (priority 2007, published 2010).
# Like-named read-outs stand apart in the source and are kept apart here. No end group written: not given here.
# Legend:
# [1] = system: cocaine self-administration; conditions: cited from earlier work
# [2] = system: cocaine-induced conditioned place preference; conditions: rats; cited from earlier work
# [3] = system: rat pituitary corticotropes; conditions: cited from earlier work
# [4] = system: plasma corticosterone; conditions: rats; cited from earlier work
# [5] = target: T1, CRF1 receptors (Rattus norvegicus, UniProt P35353); test: [125I]-Tyr0-sauvagine competition binding, rat cerebellar membrane homogenates; parameters: from tissue; host or cells: rat cerebellum, membrane homogenate; conditions: six independent experiments, read-out: PIC50, displacement of specific [125I]-Tyr0-sauvagine binding (converted)
# T1 sequence (P35353 24-415): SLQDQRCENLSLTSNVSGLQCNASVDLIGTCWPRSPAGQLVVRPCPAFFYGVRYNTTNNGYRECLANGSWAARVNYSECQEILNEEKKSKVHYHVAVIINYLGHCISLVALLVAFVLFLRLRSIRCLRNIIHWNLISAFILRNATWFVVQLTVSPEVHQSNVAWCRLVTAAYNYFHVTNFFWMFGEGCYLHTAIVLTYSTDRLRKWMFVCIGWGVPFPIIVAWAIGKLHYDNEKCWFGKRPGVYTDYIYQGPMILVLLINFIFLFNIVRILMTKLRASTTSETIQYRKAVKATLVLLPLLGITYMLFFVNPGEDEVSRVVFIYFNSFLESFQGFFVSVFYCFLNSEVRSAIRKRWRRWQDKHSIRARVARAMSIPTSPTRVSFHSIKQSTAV
# Experimental: Binding activity of MPZP was determined in a competition assay using […] (2200 Ci/mmol; Perkin Elmer, Waltham, Mass.) as the radioligand. Cerebellum was homogenized in homogenizing buffer (Dulbecco's phosphate-buffered saline [PBS]:1.5 mM KH2PO4, 8.1 mM Na2HPO4, 2.7 mM KCl, 138 mM NaCl, pH 7.2, supplemented with 10 mM MgCl2, 2 mM EGTA) using a Polytron (Dispersing and Mixing Technology, Kinematica, Littau-Lucerne, Switzerland) at setting 6 for 2×15 seconds on ice. The homogenate was centrifuged at 45,000×g for 20 minutes at 4° C. The pellet was resuspended and spun at 45,000×g for 20 minutes at 4° C. The final pellet was resuspended in assay buffer (homogenizing buffer supplemented with protease inhibitor; 1 tablet/10 ml; Sigma CAT#58829-20TAB, St. Louis, Mo., pH 7.4) using a Polytron.
# Med. Chem. (2000) 8:181-189], whose structural formula is shown below.
# Total binding was determined using assay buffer in lieu of a CRF1 antagonist, and nonspecific binding was determined in the presence of 1 μM unlabeled sauvagine. The final radioligand concentration was 0.2 nM, and the reaction was incubated at room temperature for 2 hours. […] The pellet-containing tip was cut off and counted in an automated 10-detector gamma counter (MicroMedic Apex, ICN Biomedical, Costa Mesa, Calif.) at 80% efficiency. […]
# [6] = system: precipitated-withdrawal induced anxiety-like behavior; test: Defensive burying test during mecamylamine-precipitated nicotine withdrawal; type: in vivo, rat; conditions: for Burying / Freezing / Grooming / Latency to bury / Rearing / Resting: Vehicle + Mecamylamine
# Experimental: Nicotine hydrogen tartrate salt (Sigma, Natick) was dissolved in saline at pH 7.4 and experimenter-administered via minipump or self-administered via indwelling jugular catheter. Doses are expressed as free base. Mecamylamine (Sigma; Natick, Mass.) was dissolved in saline and administered i.p. (1 ml/kg). The CRF1 antagonist (N,N-bis(2-methoxyethyl)-3-(4-methoxy-2-methylphenyl)-2,5-dimethyl-pyrazolo-[1,5α]pyrimidin-7-amine, or MPZP) was synthesized at The Scripps Research Institute by Dr. P. Wirshing, dissolved in 20% hydroxypropyl beta-cyclodextrin (Cavitron, Cargill) in isotonic saline at pH 4.5 and administered s.c. (2 ml/kg, 45 to 60 min before testing). Rat/human CRF was supplied by Dr. Jean Rivier, The Salk Institute. CRF was dissolved in 1× PBS (pH 7.4) and prepared fresh few minutes before intracerebral injection. The doses and time of injections were selected based on previous studies [Richardson et al., Program No. 783. 4 Neuroscience Meeting Planner. Atlanta, Ga.: Society for Neuroscience, OnlineI (2006); Specio et al., Program No. 777. 11 Neuroscience Meeting Planner. Washington, D.C.: Society for Neuroscience, Online (2004)].
# Rats were subcutaneously implanted with osmotic minipumps delivering either saline (n=33) or nicotine (n=31) (3.16 mg/kg/day, free base, s.c.) as described above. After 14 days of pump exposure, testing was performed 5-8 hours into the dark cycle in a standard cage with 2 inches of bedding (wood shavings) along the bottom and a small hole centered in one side one inch above the bedding to accommodate the shock-probe. Rats were habituated (45 minutes) to the test cage for 2 days prior to testing. On the test day, mecamylamine or its vehicle were administered 30 minutes before behavioral testing, and the CRF1 antagonist or its vehicle were administered 45 minutes before behavioral testing (n=7-9 per group). On contact with the probe and shock delivery (using a Coulbourn precision shocker, 1.5 mA, AC, <1 s), verified by a startle response, the probe was deactivated. The latency and duration of probe-directed burying, rearing, resting, grooming, and freezing were measured from videotape over a 10 minutes period by an experimenter blind to the subject treatment condition using a computer program.
# [7] = system: extracellular CRF-L-IR in the central nucleus of the amygdala; test: In vivo microdialysis and radioimmunoassay of CRF-like immunoreactivity in the central nucleus of the amygdala; parameters: species or system rat; conditions: mecamylamine 1.5 mg/kg i.p.
# Experimental: The changes in interstitial levels of CRF-like-immunoreactivity (CRF-L-IR) in the central nucleus of the amygdala were examined during mecamylamine-precipitated withdrawal (1.5 mg/kg, ip). Rats were subcutaneously implanted with osmotic minipumps (model 2m12, 14 days, 5 μL/hour; Durect Corporation, Palo Alto, Calif.) delivering either saline (non-dependent, n=5) or nicotine (nicotine-dependent, n=7) (3.16 mg/kg/day, free base, s.c.) and a microdialysis guide cannula (SciPro Inc., Sanborn N.Y., USA) stereotaxically positioned 1 mm above the central nucleus of the amygdala using the following coordinates (AP −3.3 mm; ML ±4.2 mm; V −6.5 mm, from dura with flat skull). After 14 days of pump exposure, a microdialysis probe (1 mm PES membrane, 15 kDA MW cutoff; SciPro Inc., Sanborn N.Y., USA) was lowered into the guide cannula and allowed to equilibrate for 12 hours (1 μl/min flow rate, artificial cerebrospinal fluid). […]
# Dialysate CRF-like immunoreactivity was quantified with a sensitive and specific solid-phase radioimmunoassay (RIA) adapted from Zorrilla et al. Psychopharmacology (Berl). […] Wells were rinsed, blotted dry and separated, and residual radioactivity was counted by a gamma counter for 5 minutes per well.
# [8] = Debruyne et al. 2003; cited from earlier work
# [9] = system: anxiety-like behavior of naive rats; test: Defensive burying test after bilateral CRF infusion in the central nucleus of the amygdala; type: in vivo, rat; conditions: CRF 30 pmol total dose, bilateral intra-amygdala
# Experimental: To confirm that increases of CRF in the central nucleus of the amygdala elicit anxiety-like behavior, anxiety-like behavior was measured using the defensive burying test, after bilateral infusion of CRF (30 pmol total dose) or vehicle in the central nucleus of the amygdala of naive rats one minute before beginning of the burying test. CRF administered directly into the amygdala increased the time spent burying and decreased the latency to bury during the first 5 minutes after infusion (Table 2),
# Rats were anesthetized with an isoflurane-oxygen mixture, and 26-gauge stainless steel guide cannulas (Plastics One, Roanoke, Va.) aimed 2 mm above the central nucleus of the amygdala stereotaxically were implanted bilaterally: AP −2.6 mm; ML ±4.2 mm; V −5.2 mm, from dura, with flat skull (Paxinos and Watson, 1998). The guide cannulas were secured to the skull with dental cement and anchor screws, and guide cannulas were maintained with stylets. Intracerebral injections were administered with the use of injectors (33-gauge; Plastics One) that projected 2 mm past the guide cannula to the central nucleus of the amygdala. The injectors were attached to 70 cm of calibrated polyethylene-20 tubing preloaded with drug solution. This cohort of rats had been extensively handled previously in the context of a food intake study, in which they received administration of a CRF1 receptor antagonist subcutaneously and into the central nucleus of the amygdala in a Latin-square design. A washout period of 7 days was imposed before the present study with all subjects maintained on chow, during which animals were handled daily. Rats were randomly assigned to CRF vs. vehicle conditions balanced for previous diet history, which was statistically unrelated to performance in the defensive burying test. The CRF group (n=5) was infused bilaterally (30 pmol total dose) with a volume of 0.25 μL/side over 30 seconds using Hamilton microsyringes and 2 infusion pumps (Harvard Apparatus, Holliston, Mass.). The control group (n=5) received the same volume of PBS. Injectors were removed from guide cannulae 1 minute after the end of the infusions, and rats were returned to the home cage for 1 minute before being tested in the defensive burying test.
# [10] = nicotine-dependent rats, mecamylamine injection
molecule,measurement,setting,value
"CCCCN(CC)c1nc(C)nc2c1c(C)cn2-c1c(C)cc(C)cc1C [CP-154,526]",cocaine self-administration,"[1]; 0.5 mg/kg/injection cocaine, rats",reduced
same,cocaine self-administration,"[1]; rats with limited daily drug access (1 h/day), pretreatment",dose-dependent decreases
same,food-reinforced responding,"[1]; rats, pretreatment",does not affect
same,cocaine-induced conditioned place preference,[2],reduced
CCC(CC)Nc1cc(C)nc2c(-c3ccc(OC)cc3C)c(C)nn12 [DMP904],ACTH release,[3],inhibited
same,stress-induced increase of plasma corticosterone,[4],dose-dependently inhibited
same,IC50,[5],2.14 nM
"CNC1(C)C2CCC(C2)C1(C)C (centres unmarked) [mecamylamine, reference compound]",Burying,[6]; nicotine pump,271 ± 46 s
same,Freezing,[6]; nicotine pump,1 ± 1 s
same,Grooming,[6]; nicotine pump,16 ± 5 s
same,Latency to bury,[6]; nicotine pump,31 ± 9 s
same,Rearing,[6]; nicotine pump,105 ± 25 s
same,Resting,[6]; nicotine pump,49 ± 21 s
same,change in latency to bury compared to vehicle injection,[6]; [10],−70%
same,change in time spent burying compared to vehicle injection,[6]; [10],+243%
same,anxiety-like behavior,"[6]; non-dependent rats, mecamylamine injection",did not alter
same,Burying,[6]; saline pump,135 ± 39 s
same,Freezing,[6]; saline pump,1 ± 1 s
same,Grooming,[6]; saline pump,30 ± 12 s
same,Latency to bury,[6]; saline pump,87 ± 25 s
same,Rearing,[6]; saline pump,118 ± 14 s
same,Resting,[6]; saline pump,67 ± 24 s
same,increase of CRF-L-IR in the central amygdala compared with baseline,[7]; nicotine-dependent rats,over 500%
same,increase of CRF-L-IR in the central amygdala,[7]; saline-treated (non-dependent) rats,not observed
same,pharmacokinetic half-life,[8],about 1 hour
"CRF: Corticotropin-releasing factor, a 41 amino-acid residue peptide; rat/human CRF infused into the central nucleus of the amygdala (SEEPPISLDLTFHLLREVLEMARAEQLAQQAHSNRKLMEII; ends and bridges not checked; UniProt P06850 154-194, looked up)",Grooming,[9],30 ± 27 s
same,Latency to bury,[9],165 ± 91 s
same,Rearing,[9],91 ± 15 s
same,Burying,[9]; first 5 minutes after infusion,7.1 ± 4.7 s
